{
  "source": "patent US20260109721A1",
  "about": "“IONIZABLE CATIONIC LIPIDS INCORPORATING SILICON: SYNTHESIS AND LNP FORMULATION” (priority 2023, published 2026)",
  "system": "HepG2 cell line",
  "experiment": "In vitro toxicity study on HepG2 cell line (resazurin, viability and IC50)",
  "type": "cell-based, human",
  "conditions": "resazurin; for Viability (%) at different lipid concentrations, mean: HepG2 cells, 48 h post-treatment, relative to ethanol vehicle controls; for IC50: Homo sapiens, lipid toxicity, HepG2, 48 h post-treatment, 6.25-800 μM, read-out: IC50 value, μM (on HepG2 cell)",
  "description": "The synthesized lipids were tested in term of in vitro transfection efficacy and toxicity on HeLa cells. In order to perform the mentioned biological tests, appropriate LNPs had to be formulated from the synthesized lipids. The formulation technique was different in Method A and B. The particle size, polydispersity index (PDI) and zeta potential of resulting LNPs were determined by means of Dynamic Light Scattering technique (DLS). Prior to biological testing the encapsulation efficiency (EE) of the loaded LNPs was determined by using RiboGreen RNA assay. In case of Method A Luc mRNA while in case of Method B GFP mRNA was transfected into the cells. In parallel with the transfection experiments, toxicity of the investigated LNPs was determined, in case of Method A resazurin assay while in case of Method B MTT assay was used. Additionally, the toxicity of the lipids was investigated on HepG2 cells and IC50 values were determined.\nHepG2 cell line (human hepatocellular carcinoma) were maintained in DMEM medium supplemented with 10% FBS. Cell toxicity measurements were carried out in 384-well microtiter plates with 1000 cells seeded in each well. Test measurements were carried out in triplicate, and control measurements in quadruplicate. After an overnight incubation, the cells were treated with an increasing concentration of the test compounds (6.25, 12.5, 25, 50, 100, 200, 400, 800 μM). […] 48 h post-treatment, following visual inspection under an inverted microscope, cell viability was measured by resazurin assay. Viability of treated cells was calculated relative to that of ethanol vehicle controls. Concentration response curves (CRCs) were obtained and corresponding IC50 values were calculated where applicable and are shown in Table 9.\nResazurin reagent (Sigma-Aldrich) was dissolved in PBS (pH 7.4) at 0.15 mg/ml concentration, 0.22 μm filtered and aliquoted at −20° C., 10 μl resazurin stock solution was added to wells. After 5 hours incubation at 37° C. under 5% CO2 fluorescence (530 nm excitation/580 nm emission) was recorded on a multimode microplate reader.",
  "data": [
    {"smiles": "CCCCC/C=C\\C/C=C\\CCCCCCCCOC(CCCCCCC/C=C\\C/C=C\\CCCCC)O[Si](C)(C)OCCCCCCN1CCCC1CO", "note": "(stereo not shown) [Example 63, (1-((20Z,23Z)-10-((8Z,11Z)-heptadeca-8,11-dien-1-yl)-8,8-dimethyl-7,9,11-trioxa-8-silanonacosa-20,23-dien-1-yl)pyrrolidin-2-yl)methanol]", "values": [
      {"measurement": "Viability (%) at different lipid concentrations, mean", "setting": "6.25 μM lipid", "value": 99.3, "unit": "%"},
      {"measurement": "Viability (%) at different lipid concentrations, mean", "setting": "12.5 μM lipid", "value": 96.4, "unit": "%"},
      {"measurement": "Viability (%) at different lipid concentrations, mean", "setting": "25 μM lipid", "value": 96.6, "unit": "%"},
      {"measurement": "Viability (%) at different lipid concentrations, mean", "setting": "50 μM lipid", "value": 98.3, "unit": "%"},
      {"measurement": "Viability (%) at different lipid concentrations, mean", "setting": "100 μM lipid", "value": 94.8, "unit": "%"},
      {"measurement": "Viability (%) at different lipid concentrations, mean", "setting": "200 μM lipid", "value": 91.6, "unit": "%"},
      {"measurement": "Viability (%) at different lipid concentrations, mean", "setting": "400 μM lipid", "value": 85.3, "unit": "%"},
      {"measurement": "Viability (%) at different lipid concentrations, mean", "setting": "800 μM lipid", "value": 74.5, "unit": "%"},
      {"measurement": "IC50", "value": "> 800", "unit": "µM"}
    ]},
    {"smiles": "CCCCC/C=C\\C/C=C\\CCCCCCCCOC(CCCCCCC/C=C\\C/C=C\\CCCCC)O[Si](C)(C)OCCCCCCN(CCCO)CCCO", "note": "(stereo not shown) [Example 61, (24Z,27Z)-14-((8Z,11Z)-heptadeca-8,11-dien-1-yl)-4-(3-hydroxypropyl)-12,12-dimethyl-11,13,15-trioxa-4-aza-12-silatritriaconta-24,27-dien-1-ol]", "values": [
      {"measurement": "Viability (%) at different lipid concentrations, mean", "setting": "6.25 μM lipid", "value": 100.6, "unit": "%"},
      {"measurement": "Viability (%) at different lipid concentrations, mean", "setting": "12.5 μM lipid", "value": 110.1, "unit": "%"},
      {"measurement": "Viability (%) at different lipid concentrations, mean", "setting": "25 μM lipid", "value": 116.5, "unit": "%"},
      {"measurement": "Viability (%) at different lipid concentrations, mean", "setting": "50 μM lipid", "value": 106.3, "unit": "%"},
      {"measurement": "Viability (%) at different lipid concentrations, mean", "setting": "100 μM lipid", "value": 54.4, "unit": "%"},
      {"measurement": "Viability (%) at different lipid concentrations, mean", "setting": "200 μM lipid", "value": 14.9, "unit": "%"},
      {"measurement": "Viability (%) at different lipid concentrations, mean", "setting": "400 μM lipid", "value": "−0.5", "unit": "%"},
      {"measurement": "Viability (%) at different lipid concentrations, mean", "setting": "800 μM lipid", "value": "−1.4", "unit": "%"},
      {"measurement": "IC50", "value": 102, "unit": "µM"}
    ]},
    {"smiles": "CCCCC/C=C\\C/C=C\\CCCCCCCCOC(CCCCCCC/C=C\\C/C=C\\CCCCC)O[Si](C)(C)OCCCCCCN1CCC(CO)CC1", "note": "(stereo not shown) [Example 65, (1-((20Z,23Z)-10-((8Z,11Z)-heptadeca-8,11-dien-1-yl)-8,8-dimethyl-7,9,11-trioxa-8-silanonacosa-20,23-dien-1-yl)piperidin-4-yl)methanol]", "values": [
      {"measurement": "IC50", "value": 742, "unit": "µM"}
    ]},
    {"smiles": "CCCCCCCCO[Si](C)(C)O[Si](C)(C)OC(CCCCCCC)OCCCCCCN(C)CCN(C)CCN(C)CCCCCCOC(CCCCCCC)O[Si](C)(C)O[Si](C)(C)OCCCCCCCC", "note": "(stereo not shown) [Example 83, N^1-(11-heptyl-3,13,13,15,15-pentamethyl-10,12,14,16-tetraoxa-3-aza-13,15-disilatetracosyl)-N^1,N^2-dimethyl-N^2-(6-((1-((1,1,3,3-tetramethyl-3-(octyloxy)disiloxaneyl)oxy)octyl)oxy)hexyl)ethane-1,2-diamine]", "values": [
      {"measurement": "Viability (%) at different lipid concentrations, mean", "setting": "6.25 μM lipid", "value": 100.51, "unit": "%"},
      {"measurement": "Viability (%) at different lipid concentrations, mean", "setting": "12.5 μM lipid", "value": 98.95, "unit": "%"},
      {"measurement": "Viability (%) at different lipid concentrations, mean", "setting": "25 μM lipid", "value": 100.30, "unit": "%"},
      {"measurement": "Viability (%) at different lipid concentrations, mean", "setting": "50 μM lipid", "value": 101.93, "unit": "%"},
      {"measurement": "Viability (%) at different lipid concentrations, mean", "setting": "100 μM lipid", "value": 83.41, "unit": "%"},
      {"measurement": "Viability (%) at different lipid concentrations, mean", "setting": "200 μM lipid", "value": 41.91, "unit": "%"},
      {"measurement": "Viability (%) at different lipid concentrations, mean", "setting": "400 μM lipid", "value": 2.25, "unit": "%"},
      {"measurement": "Viability (%) at different lipid concentrations, mean", "setting": "800 μM lipid", "value": "−1.25", "unit": "%"},
      {"measurement": "IC50", "value": 176, "unit": "µM"}
    ]}
  ]
}
